{"source": "paper PMC9395446", "about": "“First-in-human phase 1/1b study to evaluate sitravatinib in patients with advanced solid tumors” (Investigational New Drugs, 2022)", "assay": "Safety in phase 1/1b study (DLTs, TRAEs, TEAEs; CTCAE v4.03)", "format": "in vivo, human", "settings": "Overall", "excerpt": "Safety assessments included evaluation of DLTs, AEs, physical examinations, vital sign measurements, electrocardiogram recordings and laboratory tests.\nA DLT was defined as a grade ≥ 4 hematologic abnormality lasting ≥ 4 days; grade 3 thrombocytopenia with clinically significant bleeding; febrile neutropenia; clinically significant grade ≥ 3 non-hematologic AEs not related to underlying malignancy; intolerable grade 2 AEs; or toxicity resulting in an inability to deliver 80% of the dose during the first treatment cycle.\nThe safety population included all patients who received ≥ 1 dose of sitravatinib. […] The PK evaluable population included all patients with sufficient concentration-time data for PK parameter evaluation. The modified intent-to-treat (mITT) population included all phase 1b patients who received ≥ 1 dose of study drug."}
{"compound": "COCCNCc1ccc(-c2cc3nccc(Oc4ccc(NC(=O)C5(C(=O)Nc6ccc(F)cc6)CC5)cc4F)c3s2)nc1", "note": "[sitravatinib, Sitravatinib]", "values": [{"measurement": "AST increased TRAE, any grade", "result": "36 (18.7) n (%)"}, {"measurement": "AST increased TRAE, grade ≥3", "result": "2 (1.0) n (%)"}, {"measurement": "Abdominal pain TEAE, any grade", "result": "44 (22.8) n (%)"}, {"measurement": "Abdominal pain TEAE, grade ≥3", "result": "6 (3.1) n (%)"}, {"measurement": "Abdominal pain TRAE, any grade", "result": "22 (11.4) n (%)"}, {"measurement": "Abdominal pain TRAE, grade ≥3", "result": "0 n (%)"}, {"measurement": "Anemia TEAE, any grade", "result": "38 (19.7) n (%)"}, {"measurement": "Anemia TEAE, grade ≥3", "result": "12 (6.2) n (%)"}, {"measurement": "Any TEAE", "result": "190 (98.4) n (%)"}, {"measurement": "Any TRAE", "result": "174 (90.2) n (%)"}, {"measurement": "Asthenia TEAE, any grade", "result": "20 (10.4) n (%)"}, {"measurement": "Asthenia TEAE, grade ≥3", "result": "0 n (%)"}, {"measurement": "Back pain TEAE, any grade", "result": "32 (16.6) n (%)"}, {"measurement": "Back pain TEAE, grade ≥3", "result": "3 (1.6) n (%)"}, {"measurement": "Blood and lymphatic system disorders TEAE, any grade", "result": "50 (25.9) n (%)"}, {"measurement": "Blood and lymphatic system disorders TEAE, grade ≥3", "result": "20 (10.4) n (%)"}, {"measurement": "Blood creatinine increased TEAE, any grade", "result": "21 (10.9) n (%)"}, {"measurement": "Blood creatinine increased TEAE, grade ≥3", "result": "0 n (%)"}, {"measurement": "Cardiac disorders TEAE, any grade", "result": "24 (12.4) n (%)"}, {"measurement": "Cardiac disorders TEAE, grade ≥3", "result": "10 (5.2) n (%)"}, {"measurement": "Constipation TEAE, any grade", "result": "66 (34.2) n (%)"}, {"measurement": "Constipation TEAE, grade ≥3", "result": "0 n (%)"}, {"measurement": "Constipation TRAE, any grade", "result": "22 (11.4) n (%)"}, {"measurement": "Constipation TRAE, grade ≥3", "result": "0 n (%)"}, {"measurement": "Cough TEAE, any grade", "result": "34 (17.6) n (%)"}, {"measurement": "Cough TEAE, grade ≥3", "result": "0 n (%)"}, {"measurement": "Decreased appetite TEAE, any grade", "result": "74 (38.3) n (%)"}, {"measurement": "Decreased appetite TEAE, grade ≥3", "result": "4 (2.1) n (%)"}, {"measurement": "Decreased appetite TRAE, any grade", "result": "51 (26.4) n (%)"}, {"measurement": "Decreased appetite TRAE, grade ≥3", "result": "2 (1.0) n (%)"}, {"measurement": "Dehydration TEAE, any grade", "result": "36 (18.7) n (%)"}, {"measurement": "Dehydration TEAE, grade ≥3", "result": "5 (2.6) n (%)"}, {"measurement": "Diarrhea TEAE, any grade", "result": "116 (60.1) n (%)"}, {"measurement": "Diarrhea TEAE, grade ≥3", "result": "25 (13.0) n (%)"}, {"measurement": "Diarrhea TRAE, any grade", "result": "98 (50.8) n (%)"}, {"measurement": "Diarrhea TRAE, grade ≥3", "result": "20 (10.4) n (%)"}, {"measurement": "Dizziness TEAE, any grade", "result": "34 (17.6) n (%)"}, {"measurement": "Dizziness TEAE, grade ≥3", "result": "0 n (%)"}, {"measurement": "Dizziness TRAE, any grade", "result": "20 (10.4) n (%)"}, {"measurement": "Dizziness TRAE, grade ≥3", "result": "0 n (%)"}, {"measurement": "Dry mouth TEAE, any grade", "result": "28 (14.5) n (%)"}, {"measurement": "Dry mouth TEAE, grade ≥3", "result": "0 n (%)"}, {"measurement": "Dry mouth TRAE, any grade", "result": "21 (10.9) n (%)"}, {"measurement": "Dry mouth TRAE, grade ≥3", "result": "0 n (%)"}, {"measurement": "Dysphonia TEAE, any grade", "result": "47 (24.4) n (%)"}, {"measurement": "Dysphonia TEAE, grade ≥3", "result": "0 n (%)"}, {"measurement": "Dysphonia TRAE, any grade", "result": "27 (14.0) n (%)"}, {"measurement": "Dysphonia TRAE, grade ≥3", "result": "0 n (%)"}, {"measurement": "Dyspnea TEAE, any grade", "result": "31 (16.1) n (%)"}, {"measurement": "Dyspnea TEAE, grade ≥3", "result": "6 (3.1) n (%)"}, {"measurement": "Edema peripheral TEAE, any grade", "result": "29 (15.0) n (%)"}, {"measurement": "Edema peripheral TEAE, grade ≥3", "result": "1 (0.5) n (%)"}, {"measurement": "Endocrine disorders TEAE, any grade", "result": "53 (27.5) n (%)"}, {"measurement": "Endocrine disorders TEAE, grade ≥3", "result": "2 (1.0) n (%)"}, {"measurement": "Fatigue TEAE, any grade", "result": "98 (50.8) n (%)"}, {"measurement": "Fatigue TEAE, grade ≥3", "result": "19 (9.8) n (%)"}, {"measurement": "Fatigue TRAE, any grade", "result": "83 (43.0) n (%)"}, {"measurement": "Fatigue TRAE, grade ≥3", "result": "14 (7.3) n (%)"}, {"measurement": "Gastrointestinal disorders TEAE, any grade", "result": "167 (86.5) n (%)"}, {"measurement": "Gastrointestinal disorders TEAE, grade ≥3", "result": "49 (25.4) n (%)"}, {"measurement": "General disorders and administration site conditions TEAE, any grade", "result": "131 (67.9) n (%)"}, {"measurement": "General disorders and administration site conditions TEAE, grade ≥3", "result": "23 (11.9) n (%)"}, {"measurement": "Headache TEAE, any grade", "result": "40 (20.7) n (%)"}, {"measurement": "Headache TEAE, grade ≥3", "result": "2 (1.0) n (%)"}, {"measurement": "Hypertension TEAE, any grade", "result": "88 (45.6) n (%)"}, {"measurement": "Hypertension TEAE, grade ≥3", "result": "47 (24.4) n (%)"}, {"measurement": "Hypertension TRAE, any grade", "result": "78 (40.4) n (%)"}, {"measurement": "Hypertension TRAE, grade ≥3", "result": "40 (20.7) n (%)"}, {"measurement": "Hypokalemia TEAE, any grade", "result": "20 (10.4) n (%)"}, {"measurement": "Hypokalemia TEAE, grade ≥3", "result": "3 (1.6) n (%)"}, {"measurement": "Hypomagnesemia TEAE, any grade", "result": "24 (12.4) n (%)"}, {"measurement": "Hypomagnesemia TEAE, grade ≥3", "result": "0 n (%)"}, {"measurement": "Hyponatremia TEAE, any grade", "result": "25 (13.0) n (%)"}, {"measurement": "Hyponatremia TEAE, grade ≥3", "result": "11 (5.7) n (%)"}, {"measurement": "Hypophosphatemia TEAE, any grade", "result": "20 (10.4) n (%)"}, {"measurement": "Hypophosphatemia TEAE, grade ≥3", "result": "11 (5.7) n (%)"}, {"measurement": "Hypothyroidism TEAE, any grade", "result": "47 (24.4) n (%)"}, {"measurement": "Hypothyroidism TEAE, grade ≥3", "result": "0 n (%)"}, {"measurement": "Hypothyroidism TRAE, any grade", "result": "33 (17.1) n (%)"}]}
